Legend:
Assay in all cases: field test of gametocidal activity (sterilisation of anthers)
Type in all cases: in vivo
[1] = system: diploidem Roggen Sorte Gibrid 1861/79; conditions: V. Periode, 1%ige wäßrige Emulsion, 6 kg/ha; for Prozentsatz des Ansetzens der Körner bei freier Bestäubung: control = 100
Source text: (§1) Die gametozide Aktivität der erfindungsgemäßen Sterilisationsmittel war in Feldversuch in verschiedenen bodenklimatischen Zonen mit Teilstücken von 10 m^2 Größe in drei-- bis viermaliger Wiederholung nachgewiesen. Jedes Sterilisationsmittel wurde mindestens 5 Jahre lang geprüft.
(§2) Die Entwicklung der Perioden der Organogenese wird zytologisch überwacht. Die Behandlung von Pflanzen mit dem Sterilisationsmittel erfolgt am Anfang der fünften Periode der Organogenese nach Kupermann.
(§3) Mit dem Ahrenschieben verwirklicht man die Isolierung von Hauptähren und anderen Stockwerken in Pergamentbeuteln. Bei Weizen und Tritikale werden Einzelisolatoren verwendet. Bei Roggen schließt man je 1 Ähre von 5 bis 7 verschiedenen nebeneinander befindlichen Pflanzen in einen gemeinsamen Isolator ein. Bei Hirse wird jede Rispe getrennt isoliert. Der Sterilitätsprozentsatz (X) für Weizen, Roggen, Tritikale und Hirse wird nach der Formel [formula]
(§4) Samen von unbehandelten Kontrollpflanzen ermittelt.
(§5) Die Kornzahl in nicht isolierten Ähren von Kontrollpflanzen wird bedingt für 100% Ansetzen bei freier Bestäubung angenommen.
(§6) Um zuverlässige Angaben zu erhalten, verwendet man 20 bis 25 Isolatoren jeder Wiederholung für Weizen und Tritikale, 10 bis 15 Isolatoren jeder Wiederholung für Roggen und Hirse.
Pflanzen von diploidem Roggen Sorte Gibrid 1861/79 werden in der V. Periode der Organogenese (nach Kupermann) mit einer 1%igen wäßrigen Emulsion von Phthalsäurediisobutylester, Kaliumsalz der 2-Methyl-3-zyklohexenkarbonsäure, 2--Methyl-3-zyklohexenkarbonsäuremethylester, Ammoniumsalz der 2-Methyl-3-zyklohexenkarbonsäure, Phthalsäurediallylester, Phthalsäuredihexylester, Ammoniumsalz der p-Hydroxybenzoesäure behandelt. Die Emulsion enthält 0,01 Masse% Dimethylsulfoxid und 0,1 Masse% C12-C14-Kalziumalkylbenzolsulfonat. Der Verbrauch an Präparat beträgt 6 kg/ha. Als Kontrolle dienen Pflanzen, behandelt mit einem Verdünner ohne Sterilisationsmittel.

[2] = system: Sommerweizen Moskovskaya 35; conditions: V. Periode, 1%ige wäßrige Emulsion, 10 kg/ha; for Prozentsatz des Ansetzens der freier Bestäubung: control = 100
Source text: as §1, §2, §3, §4, §5, §6
Pflanzen des Sommerweizens Sorte Moskovskaya 35 werden in der V. Periode der Organogenese (nach Kupermann) mit einer 1%igen wäßrigen Emulsion von Kaliumsalz der 2-Methyl-3-zyklohexenkarbonsäure,2-Methyl-3-zyklohexenkarbon- äthylester, Phthalsäuredipropylester, Phthalsäurediallylester, Phthalsäurediisobutylester, Kaliumsalz der Benzoesäure behandelt. Die Emulsion enthält 0,01 Masse% Dimethylsulfoxid und 0,1 Masse% C12-C14-Kalziumalkylbenzolsulfonat. Der Verbrauch an Präparat beträgt 10 kg/ha. Als Kontrolle dienen Pflanzen, behandelt mit einem Verdünner ohne Sterilisationsmittel. […]
(§7) In allen Fällen dienen als Kontrolle Pflanzen, behandelt mit einem Verdünner ohne Sterilisationsmittel. Die Prüfergebnisse sind in der Tabelle 20 angeführt. […] Periode der Organogenese erhalten.

[3] = system: diploidem Roggen Sorte Kharkovskaya 55; conditions: V. und VI. Periode, 1%ige wäßrige Emulsion, 6 kp/ha
Source text: as §1, §2, §3, §4, §5, §6
Pflanzen von diploidem Roggen Sorte Kharkovskaya 55 werden in der V. und VI. Periode der Organogenese (nach Kupermann) mit einer 1%igen wäßrigen Emulsion von Phthalsäuredibutylester, Phthalsäurediisobutylester, Phthalsäurediallylester, Phthalsäuredihexylester, 2-Methyl-3-zyklohexen- karbonsäuremethylester, Natriumsalz der 2-Methyl-3-zyklohex- enkarbonsäure behandelt. Die Emulsion enthält 0,01 Masse% Dimethylformamid und 0,1 Masse% C12C14-Kalziumalkylbenzolsulfonat.
Der Verbrauch an Präparat beträgt 6 kp/ha. Als Kontrolle dienen Pflanzen, benandelt mit einem Verdünner ohne Sterilisationsmittel.

[4] = system: Tritikale der Sorte PRAG-109; conditions: V. Periode, 1%ige wäßrige Emulsion, 10 kg/ha; for Prozentsatz des Ansetzens der Körner bei freier Bestäubung: control = 100
Source text: as §1, §2, §3, §4, §5, §6
Pflanzen Tritikale der Sorte PRAG-109 werden in der V. Periode der Organogenese (nach Kupermann) mit einer 1%igen wäßrigen Emulsion von Phthalsäuredibutylester, Phthalsäurediäthylester, Phthalsäuredihexylester, Phthalsäurediisobutylester, Kaliumsalz der 2-Methyl-3-zyklohexenkarbon- säure, 2-Methyl-3-zyklohexenkarbonsäuremethylester behandelt. Die Emulsion enthält 0,01 Masse% Dimethylsulfoxid und 0,1 Masse% C12C14- Kalziumalkylbenzolsulfonat. Der Verbrauch an Präparat beträgt 10 kg/ha. Als Kontrolle dienen Pflanzen, behandelt mit einem Verdünner ohne Sterilisationsmittel. […]
as §7

[5] = system: tetraploidem Roggen Sorte Belta; conditions: V. Periode, 1%ige wäßrige Emulsion, 6 kg/ha; for Prozentsatz des Ansetzens bei freier Bestäubung: control = 100
Source text: as §1, §2, §3, §4, §5, §6
Pflanzen von tetraploidem Roggen Sorte Belta werden in der V. Periode der Organogenese (nach Kupermann) mit einer 1%igen wäßrigen Emulsion von Kaliumsalz der 2-Methyl-3-zy- klohexenkarbonsäure, 2-Methyl-3-zyklohexenkarbonsäuremethyl- ester, Phthalsäuredibutylester, Phthalsäuredihexylester, Phthalsäuredipropylester, Phthalsäurediallylester, Phthalsäurediisobutylester, Kaliumsalz der […] behandelt. Die Emulsion enthält 0,01 Masse% Dimethylsuloxid und 0,1 Masse% C12-C14-Kalziumalkylbenzolsulfonat. Der Verbrauch an Präparat beträgt 6 kg/ha. Als Kontrolle dienen Pflanzen behandelt mit einem Verdünner ohne Sterilisationsmittel.

## CCCCCCOC(=O)c1ccccc1C(=O)OCCCCCC [Beispiel 87, Phthalsäuredihexylester]
[1]
  Kornzahl der Ähre bei freier Bestäubung: 56,4
  Kornzahl der Ähre im Isolator: 0,0
  Prozentsatz der Sterilität: 100,0%
  Prozentsatz des Ansetzens der Körner bei freier Bestäubung: 89,8%

## CCCOC(=O)c1ccccc1C(=O)OCCC [Beispiel 26, Phthalsäuredipropylester]
[2]
  Kornzahl der Ähre bei freier Bestäubung: 28,6
  Kornzahl der Ähre im Isolator: 1,2
  Prozentsatz der Sterilität: 95,6%
  Prozentsatz des Ansetzens der freier Bestäubung: 86,1%

## CC1C=CCCC1C(=O)O (stereo not shown) [Beispiel 73, Natriumsalz der 2-Methyl-3-zyklohex-enkarbonsäure]
[3]
  Kornzahl der Ähre bei freier Bestäubung: 50,1
  Kornzahl der Ähre im Isolator: 0,0
  Prozentsatz der Sterilität: 100,0%
[3]; control = 100
  Prozentsatz des Ansetzens der Körner bei freier Bestäubung: 95,6%

## CCCCOC(=O)c1ccccc1C(=O)OCCCC [Beispiel 37, Phthalsäuredibutylester]
[4]
  Kornzahl der Ähre bei freier Bestäubung: 62,1
  Kornzahl der Ähre im Isolator: 0,1
  Prozentsatz der Sterilität: 99,8%
  Prozentsatz des Ansetzens der Körner bei freier Bestäubung: 90,0%

## CC1C=CCCC1C(=O)O (stereo not shown) [Beispiel 85, Ammoniumsalz der 2-Methyl-3-zyklohexenkarbonsäure]
[1]
  Kornzahl der Ähre bei freier Bestäubung: 57,8
  Kornzahl der Ähre im Isolator: 0,0
  Prozentsatz der Sterilität: 100,0%
  Prozentsatz des Ansetzens der Körner bei freier Bestäubung: 92,0%

## CCOC(=O)c1ccccc1C(=O)OCC [Beispiel 38, Phthalsäurediäthylester]
[4]
  Kornzahl der Ähre bei freier Bestäubung: 60,8
  Kornzahl der Ähre im Isolator: 0,8
  Prozentsatz der Sterilität: 98,7%
  Prozentsatz des Ansetzens der Körner bei freier Bestäubung: 88,1%

## COC(=O)C1CCC=CC1C (stereo not shown) [Beispiel 49, 2-Methyl-3-zyklohexenkarbonsäuremethyl-ester]
[5]
  Kornzahl der Ähre bei freier Bestäubung: 44,2
  Kornzahl der Ähre im Isolator: 0,0
  Prozentsatz der Sterilität: 100,0%
  Prozentsatz des Ansetzens bei freier Bestäubung: 93,8%

## CC(C)COC(=O)c1ccccc1C(=O)OCC(C)C [Beispiel 82, Phthalsäurediisobutylester]
[1]
  Kornzahl der Ähre bei freier Bestäubung: 57,1
  Kornzahl der Ähre im Isolator: 0,6
  Prozentsatz der Sterilität: 98,9%
  Prozentsatz des Ansetzens der Körner bei freier Bestäubung: 90,9%

## CC1C=CCCC1C(=O)O (stereo not shown) [Beispiel 48, Kaliumsalz der 2-Methyl-3-zy-klohexenkarbonsäure]
[5]
  Kornzahl der Ähre bei freier Bestäubung: 45,6
  Kornzahl der Ähre im Isolator: 0,1
  Prozentsatz der Sterilität: 99,8%
  Prozentsatz des Ansetzens bei freier Bestäubung: 96,8%

## CCOC(=O)C1CCC=CC1C (stereo not shown) [Beispiel 24, 2-Methyl-3-zyklohexenkarbon-äthylester]
[2]
  Kornzahl der Ähre bei freier Bestäubung: 29,6
  Kornzahl der Ähre im Isolator: 0,0
  Prozentsatz der Sterilität: 100,0%
  Prozentsatz des Ansetzens der freier Bestäubung: 89,2%

## CCCCCCOC(=O)c1ccccc1C(=O)OCCCCCC [Beispiel 39, Phthalsäuredihexylester]
[4]
  Kornzahl der Ähre bei freier Bestäubung: 61,7
  Kornzahl der Ähre im Isolator: 3,0
  Prozentsatz der Sterilität: 95,2%
  Prozentsatz des Ansetzens der Körner bei freier Bestäubung: 89,4%

## COC(=O)C1CCC=CC1C (stereo not shown) [Beispiel 42, 2-Methyl-3-zyklohexenkarbonsäuremethylester]
[4]
  Kornzahl der Ähre bei freier Bestäubung: 64,7
  Kornzahl der Ähre im Isolator: 0,0
  Prozentsatz der Sterilität: 100,0%
  Prozentsatz des Ansetzens der Körner bei freier Bestäubung: 93,8%

## COC(=O)C1CCC=CC1C (stereo not shown) [Beispiel 84, 2--Methyl-3-zyklohexenkarbonsäuremethylester]
[1]
  Kornzahl der Ähre bei freier Bestäubung: 51,2
  Kornzahl der Ähre im Isolator: 0,0
  Prozentsatz der Sterilität: 100,0%
  Prozentsatz des Ansetzens der Körner bei freier Bestäubung: 81,5%

## O=C(O)c1ccc(O)cc1 [Beispiel 88, Ammoniumsalz der p-Hydroxybenzoesäure]
[1]
  Kornzahl der Ähre bei freier Bestäubung: 68,9
  Kornzahl der Ähre im Isolator: 0,8
  Prozentsatz der Sterilität: 98,5%
  Prozentsatz des Ansetzens der Körner bei freier Bestäubung: 109,7%

## C=CCOC(=O)c1ccccc1C(=O)OCC=C [Beispiel 27, Phthalsäurediallylester]
[2]
  Kornzahl der Ähre bei freier Bestäubung: 31,1
  Kornzahl der Ähre im Isolator: 0,3
  Prozentsatz der Sterilität: 98,9%
  Prozentsatz des Ansetzens der freier Bestäubung: 94,0%

## CC1C=CCCC1C(=O)[O-].[K+] (stereo not shown) [Beispiel 23, Kaliumsalz der 2-Methyl-3-zyklohexenkarbonsäure]
[2]
  Kornzahl der Ähre bei freier Bestäubung: 30,8
  Kornzahl der Ähre im Isolator: 0,0
  Prozentsatz der Sterilität: 100,0%
  Prozentsatz des Ansetzens der freier Bestäubung: 92,8%

## CCCCOC(=O)c1ccccc1C(=O)OCCCC [Beispiel 50, Phthalsäuredibutylester]
[5]
  Kornzahl der Ähre bei freier Bestäubung: 43,1
  Kornzahl der Ähre im Isolator: 0,0
  Prozentsatz der Sterilität: 100,0%
  Prozentsatz des Ansetzens bei freier Bestäubung: 91,5%

## CC1C=CCCC1C(=O)O (stereo not shown) [Beispiel 83, Kaliumsalz der 2-Methyl-3-zyklohexenkarbonsäure]
[1]
  Kornzahl der Ähre bei freier Bestäubung: 56,7
  Kornzahl der Ähre im Isolator: 0,2
  Prozentsatz der Sterilität: 99,7%
  Prozentsatz des Ansetzens der Körner bei freier Bestäubung: 90,2%

## CC(C)COC(=O)c1ccccc1C(=O)OCC(C)C [Beispiel 28, Phthalsäurediisobutylester]
[2]
  Kornzahl der Ähre bei freier Bestäubung: 31,8
  Kornzahl der Ähre im Isolator: 0,0
  Prozentsatz der Sterilität: 100,0%
  Prozentsatz des Ansetzens der freier Bestäubung: 95,8%

## CC1C=CCCC1C(=O)O (stereo not shown) [Beispiel 41, Kaliumsalz der 2-Methyl-3-zyklohexenkarbon-säure]
[4]
  Kornzahl der Ähre bei freier Bestäubung: 65,1
  Kornzahl der Ähre im Isolator: 0,1
  Prozentsatz der Sterilität: 99,8%
  Prozentsatz des Ansetzens der Körner bei freier Bestäubung: 94,3%

## CC(C)COC(=O)c1ccccc1C(=O)OCC(C)C [Beispiel 54, Phthalsäurediisobutylester]
[5]
  Kornzahl der Ähre bei freier Bestäubung: 40,4
  Kornzahl der Ähre im Isolator: 0,0
  Prozentsatz der Sterilität: 100,0%
  Prozentsatz des Ansetzens bei freier Bestäubung: 85,8%

## CCCCCCOC(=O)c1ccccc1C(=O)OCCCCCC [Beispiel 51, Phthalsäuredihexylester]
[5]
  Kornzahl der Ähre bei freier Bestäubung: 45,9
  Kornzahl der Ähre im Isolator: 0,2
  Prozentsatz der Sterilität: 99,5%
  Prozentsatz des Ansetzens bei freier Bestäubung: 97,4%

## O=C([O-])c1ccccc1.[K+] [Beispiel 29, Kaliumsalz der Benzoesäure]
[2]
  Kornzahl der Ähre bei freier Bestäubung: 33,0
  Kornzahl der Ähre im Isolator: 7,2
  Prozentsatz der Sterilität: 73,8%
  Prozentsatz des Ansetzens der freier Bestäubung: 99,4%

## C=CCOC(=O)c1ccccc1C(=O)OCC=C [Beispiel 53, Phthalsäurediallylester]
[5]
  Kornzahl der Ähre bei freier Bestäubung: 41,6
  Kornzahl der Ähre im Isolator: 0,3
  Prozentsatz der Sterilität: 99,7%
  Prozentsatz des Ansetzens bei freier Bestäubung: 88,3%

## C=CCOC(=O)c1ccccc1C(=O)OCC=C [Beispiel 86, Phthalsäurediallylester]
[1]
  Kornzahl der Ähre bei freier Bestäubung: 59,6
  Kornzahl der Ähre im Isolator: 0,0
  Prozentsatz der Sterilität: 100,0%
  Prozentsatz des Ansetzens der Körner bei freier Bestäubung: 95,0%

— patent EP0364581A1, “METHOD OF STERILIZING PLANT POLLEN” (VSESOJUZNY NAUCHNO-ISSLEDOVATELSKY INST. SELSKOKHOZYAISTV. …, priority 1988, dated 1989)
